The text below walks through data of patent US20250282785A1, “PYRROLIDINONE DERIVATIVES AS INHIBITORS OF NF KAPPA B INDUCING KINASE” (priority 2022, published 2025).

Broadly, the IC50 is the midpoint of a concentration-inhibition curve.

Experiment [1] concerns p-IKKα levels in L363 (NIK translocated multiple myeloma) cells. The experiment in a line: Effect of compounds on p-IKKα levels in L363 cells (AlphaLISA SureFire Ultra). The experiment is classed as cell-based. The settings on record: Homo sapiens, L-363; L363 cells, BAFF stimulated, MG132, 6 h; average of values; read-out: Assay 2 IC50. The method in brief:
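L363 myeloma cells were BAFF-stimulated (250 ng/ml) overnight in DMEM/0.5% BSA, then exposed 6 h at 37° C to compound (11-point 1:3 series, 0.3% DMSO) with BAFF plus 10 uM MG132. p-IKKα (Ser 176/180) was read by AlphaLISA SureFire Ultra in lysates. IC50 came from sigmoidal fits normalized to stimulated and unstimulated controls.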
Background: In Alpha technology, singlet oxygen from a donor bead excites a nearby acceptor bead.

The target of experiment [2] is Recombinant Human NF-Kappab-Inducing Kinase (NIK/MAP3K14) (Homo sapiens, UniProt Q99558). The experiment in a line: Inhibition of auto-phosphorylation of recombinant human NIK/MAP3K14 (AlphaScreen). The class given is biochemical. The settings on record: NIK/MAP3K14 auto-phosphorylation, 5 microM ATP, 1 nM enzyme, 2 h at 25° C.; average of values; read-out: Assay 1 IC50. Put shortly: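 GST-tagged NIK (1 nM) auto-phosphorylation with 5 µM ATP in Tris pH 7.5/MgCl2 buffer, 0.7% DMSO, 2 h at 25 °C. Phospho-IKK Ser176/180 antibody detected by AlphaScreen beads. Signal normalized to full-enzyme and no-ATP controls; IC50 from sigmoidal fit of % inhibition vs log concentration.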
Sequence of Recombinant Human NF-Kappab-Inducing Kinase (NIK/MAP3K14) (Q99558 whole entry): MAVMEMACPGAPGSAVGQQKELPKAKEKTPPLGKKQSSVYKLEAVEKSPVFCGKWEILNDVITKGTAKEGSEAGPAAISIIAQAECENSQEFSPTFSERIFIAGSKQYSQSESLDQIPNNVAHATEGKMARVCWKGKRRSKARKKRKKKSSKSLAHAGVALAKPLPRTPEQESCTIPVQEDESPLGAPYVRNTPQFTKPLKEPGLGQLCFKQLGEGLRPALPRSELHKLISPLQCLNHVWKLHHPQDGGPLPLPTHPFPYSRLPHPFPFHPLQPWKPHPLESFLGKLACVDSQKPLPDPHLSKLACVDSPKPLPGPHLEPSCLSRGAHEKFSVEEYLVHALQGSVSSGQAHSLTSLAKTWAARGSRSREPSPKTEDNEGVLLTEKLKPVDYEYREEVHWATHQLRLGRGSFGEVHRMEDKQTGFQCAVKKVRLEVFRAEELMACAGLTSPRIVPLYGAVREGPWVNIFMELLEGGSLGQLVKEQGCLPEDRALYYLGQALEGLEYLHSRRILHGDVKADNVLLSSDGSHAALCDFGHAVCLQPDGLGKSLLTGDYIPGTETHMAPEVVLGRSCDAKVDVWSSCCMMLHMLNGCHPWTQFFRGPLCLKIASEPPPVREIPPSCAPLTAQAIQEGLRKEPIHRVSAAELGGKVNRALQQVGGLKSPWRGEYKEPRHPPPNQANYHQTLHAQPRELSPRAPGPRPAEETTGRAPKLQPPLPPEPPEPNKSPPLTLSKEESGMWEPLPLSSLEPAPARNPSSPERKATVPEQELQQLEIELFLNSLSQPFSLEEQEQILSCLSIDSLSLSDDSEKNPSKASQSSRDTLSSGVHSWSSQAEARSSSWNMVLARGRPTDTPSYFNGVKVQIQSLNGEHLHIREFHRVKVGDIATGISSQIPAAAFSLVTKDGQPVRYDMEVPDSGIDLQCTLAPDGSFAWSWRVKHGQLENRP

Turning to `CN1CC[C@@](O)(c2cc(-c3cccc(-c4ccc5nnc(N)n5c4)c3)no2)C1=O` [Example 74, (R)-3-(3-(3-(3-Amino-[1,2,4]triazolo[4,3-a]pyridin-6-yl)phenyl)isoxazol-5-yl)-3-hydroxy-1-methylpyrrolidin-2-one], the IC50 in experiment [1] and in experiment [2] was more than 501 nM in each case.
Consider `CCn1ncc2cc(-c3cccc(-c4cc([C@]5(O)CCN(C)C5=O)on4)c3)cnc21` [Example 55, (R)-3-(3-(3-(1-Ethyl-1H-pyrazolo[3,4-b]pyridin-5-yl)phenyl)isoxazol-5-yl)-3-hydroxy-1-methylpyrrolidin-2-one], for which the IC50 in experiment [1] and in experiment [2] was more than 501 nM in each case.
With `CN1CC[C@@](O)(c2cc(-c3cccc(-c4cc(C5CC5)c(N)c(C(N)=O)n4)c3F)no2)C1=O` [Example 242, (R)-3-Amino-4-cyclopropyl-6-(2-fluoro-3-(5-(3-hydroxy-1-methyl-2-oxopyrrolidin-3-yl)isoxazol-3-yl)phenyl)picolinamide], the IC50 in experiment [1] and in experiment [2] was less than 100 nM throughout.
Regarding `CN1CC[C@@](O)(c2cc(-c3cccc(-c4cc5c(c(C(N)=O)n4)CCCC5)c3)no2)C1=O` [Example 124, (R)-3-(3-(5-(3-Hydroxy-1-methyl-2-oxopyrrolidin-3-yl)isoxazol-3-yl)phenyl)-5,6,7,8-tetrahydroisoquinoline-1-carboxamide], the 50% inhibitory concentration (IC50) was more than 501 nM in experiment [1] and less than 100 nM in experiment [2].
For `CN1CC[C@@](O)(c2cc(-c3cccc(-c4cncc(C(N)=O)n4)c3)no2)C1=O` [Example 147, (R)-6-(3-(5-(3-Hydroxy-1-methyl-2-oxopyrrolidin-3-yl)isoxazol-3-yl)phenyl)pyrazine-2-carboxamide], the half-maximal inhibitory concentration (IC50) in experiment [1] is more than 501 nM; in experiment [2], less than 100 nM.
In the same order, the values of `COc1cn(C)nc1Nc1cnc(-c2cccc(-c3cc([C@]4(O)CCN(C)C4=O)on3)c2)nc1C(N)=O` [Example 144, (R)-2-(3-(5-(3-Hydroxy-1-methyl-2-oxopyrrolidin-3-yl)isoxazol-3-yl)phenyl)-5-((4-methoxy-1-methyl-1H-pyrazol-3-yl)amino)pyrimidine-4-carboxamide] are less than 100 nM and less than 100 nM.
The corresponding values for `CN1CC[C@@](O)(c2cc(-c3cccc(-c4nc(C(N)=O)c5n4CCN(Cc4ccccc4)C5)c3)no2)C1=O` [Example 234, (R)-7-Benzyl-3-(3-(5-(3-hydroxy-1-methyl-2-oxopyrrolidin-3-yl)isoxazol-3-yl)phenyl)-5,6,7,8-tetrahydroimidazo[1,5-a]pyrazine-1-carboxamide] are more than 501 nM and more than 501 nM.
`COc1cc(-c2cccc(-c3cc([C@]4(O)CCN(C)C4=O)on3)c2)nc2[nH]ncc12` [Example 224, (R)-3-Hydroxy-3-(3-(3-(4-methoxy-1H-pyrazolo[3,4-b]pyridin-6-yl)phenyl)isoxazol-5-yl)-1-methylpyrrolidin-2-one]: the 50% inhibitory concentration (IC50) was more than 501 nM in experiment [1] and 100 to 500 nM in experiment [2].
The corresponding values for `[2H]c1nc(N)c2nc(-c3cccc(-c4ncc([C@@]5(O)CCN(C)C5=O)o4)c3)ccc2n1` (single isomer, unassigned) [Example 40] are more than 501 nM and more than 501 nM.
In the same order, the values of `CCn1cc(-c2cc(C(N)=O)nc(-c3cccc(-c4cc([C@]5(O)CCN(C)C5=O)on4)c3)c2)c(C)n1` [Example 187, (R)-4-(1-Ethyl-3-methyl-1H-pyrazol-4-yl)-6-(3-(5-(3-hydroxy-1-methyl-2-oxopyrrolidin-3-yl)isoxazol-3-yl)phenyl)picolinamide] are 100 to 500 nM and less than 100 nM.
The corresponding values for `CN1CC[C@@](O)(c2cnn(-c3cccc(-c4cccc(C(N)=O)n4)c3)c2)C1=O` (single isomer, unassigned) [Example 29] are more than 501 nM and more than 501 nM.
On to `CN1CC[C@@](O)(c2cc(-c3cccc(-c4nc(C(N)=O)c(Br)s4)c3)no2)C1=O` [Example 215, (R)-5-Bromo-2-(3-(5-(3-hydroxy-1-methyl-2-oxopyrrolidin-3-yl)isoxazol-3-yl)phenyl)thiazole-4-carboxamide], for which the IC50 in experiment [1] was more than 501 nM; in experiment [2], less than 100 nM.
The corresponding values for `CN1CC[C@@](O)(c2cc(-c3cccc(-c4nc5c(N)ncnc5s4)c3)no2)C1=O` [Example 13, (R)-3-(3-(3-(7-Aminothiazolo[5,4-d]pyrimidin-2-yl)phenyl)isoxazol-5-yl)-3-hydroxy-1-methylpyrrolidin-2-one] are more than 501 nM and less than 100 nM.
In the case of `Cc1n[nH]c(C)c1Nc1cnc(-c2cccc(-c3cc([C@]4(O)CCN(C)C4=O)on3)c2)nc1C(N)=O` [Example 142, (R)-5-((3,5-Dimethyl-1H-pyrazol-4-yl)amino)-2-(3-(5-(3-hydroxy-1-methyl-2-oxopyrrolidin-3-yl)isoxazol-3-yl)phenyl)pyrimidine-4-carboxamide], the values for the IC50 in experiment [1] and in experiment [2] were 100 to 500 nM and less than 100 nM, respectively.
For `CN1CC[C@@](O)(c2cc(-c3cccc(-c4ncc5cnn(C)c5n4)c3)no2)C1=O` [Example 227, (R)-3-Hydroxy-1-methyl-3-(3-(3-(1-methyl-1H-pyrazolo[3,4-d]pyrimidin-6-yl)phenyl)isoxazol-5-yl)pyrrolidin-2-one], the half-maximal inhibitory concentration (IC50) in experiment [1] was more than 501 nM; in experiment [2], 100 to 500 nM.
For the compound `CN1CC[C@@](O)(c2cc(-c3cccc(-c4csc(C(N)=O)n4)c3)no2)C1=O` [Example 205, (R)-4-(3-(5-(3-Hydroxy-1-methyl-2-oxopyrrolidin-3-yl)isoxazol-3-yl)phenyl)thiazole-2-carboxamide], the half-inhibitory concentration (IC50) in experiment [1] is more than 501 nM; in experiment [2], less than 100 nM.
The corresponding values for `CN1CC[C@@](O)(c2cc(-c3cccc(-c4cccc(C(N)=O)n4)c3)[nH]n2)C1=O` (single isomer, unassigned) [Example 31] are more than 501 nM and 100 to 500 nM.
The corresponding values for `CN1CC[C@@](O)(c2cc(-c3cccc(-c4nc(C(N)=O)n5ccccc45)c3)no2)C1=O` [Example 23, (R)-1-(3-(5-(3-Hydroxy-1-methyl-2-oxopyrrolidin-3-yl)isoxazol-3-yl)phenyl)imidazo[1,5-a]pyridine-3-carboxamide] are less than 100 nM and less than 100 nM.
In the same order, the values of `CN1CC[C@@](O)(c2cc(-c3ccnc(-c4ccc(N)c(C(N)=O)n4)c3)no2)C1=O` [Example 169, (R)-5-Amino-4′-(5-(3-hydroxy-1-methyl-2-oxopyrrolidin-3-yl)isoxazol-3-yl)-[2,2′-bipyridine]-6-carboxamide] are less than 100 nM and less than 100 nM.
For the compound `CN1CC[C@@](O)(c2cc(-c3cccc(-c4nc(C(N)=O)c(CNC5CCCC5)s4)c3)no2)C1=O` [Example 223, (R)-5-((Cyclopentylamino)methyl)-2-(3-(5-(3-hydroxy-1-methyl-2-oxopyrrolidin-3-yl)isoxazol-3-yl)phenyl)thiazole-4-carboxamide], the IC50 in experiment [1] is more than 501 nM; in experiment [2], less than 100 nM.
The corresponding values for `COc1cc(-c2cccc(-c3cc([C@]4(O)CCN(C)C4=O)on3)c2)nc(C(N)=O)c1N` [Example 46, (R)-3-Amino-6-(3-(5-(3-hydroxy-1-methyl-2-oxopyrrolidin-3-yl)isoxazol-3-yl)phenyl)-4-methoxypicolinamide] are less than 100 nM and less than 100 nM.
In the same order, the values of `Cc1ncc(-c2cc(C(N)=O)nc(-c3cccc(-c4cc([C@]5(O)CCN(C)C5=O)on4)c3)c2)o1` [Example 186, (R)-6-(3-(5-(3-Hydroxy-1-methyl-2-oxopyrrolidin-3-yl)isoxazol-3-yl)phenyl)-4-(2-methyloxazol-5-yl)picolinamide] are 100 to 500 nM and less than 100 nM.
The corresponding values for `CN1CC[C@@](O)(c2cc(-c3cccc(-c4ccc5[nH]nc(N)c5n4)c3)on2)C1=O` [Example 17, (R)-3-(5-(3-(3-Amino-1H-pyrazolo[4,3-b]pyridin-5-yl)phenyl)isoxazol-3-yl)-3-hydroxy-1-methylpyrrolidin-2-one] are more than 501 nM and less than 100 nM.
In the case of `CN1CC[C@@](O)(c2cc(-c3cccc(-c4ncc(N)c(C(N)=O)n4)c3)no2)C1=O` [Example 135, (R)-5-Amino-2-(3-(5-(3-Hydroxy-1-methyl-2-oxopyrrolidin-3-yl)isoxazol-3-yl)phenyl)pyrimidine-4-carboxamide], the 50% inhibitory concentration (IC50) in experiment [1] and in experiment [2] was less than 100 nM in each case.
As to `CC(C)c1sc(-c2cccc(-c3cc([C@]4(O)CCN(C)C4=O)on3)c2)nc1C(N)=O` [Example 219, (R)-2-(3-(5-(3-Hydroxy-1-methyl-2-oxopyrrolidin-3-yl)isoxazol-3-yl)phenyl)-5-isopropylthiazole-4-carboxamide], the IC50 in experiment [1] was more than 501 nM; in experiment [2], less than 100 nM.
For `CN1CC[C@@](O)(c2cc(-c3ccc(F)c(-c4ncc(NC5COC5)c(C(N)=O)n4)c3)no2)C1=O` [Example 121, (R)-2-(2-Fluoro-5-(5-(3-hydroxy-1-methyl-2-oxopyrrolidin-3-yl)isoxazol-3-yl)phenyl)-5-(oxetan-3-ylamino)pyrimidine-4-carboxamide], the 50% inhibitory concentration (IC50) in experiment [1] was 100 to 500 nM; in experiment [2] it was less than 100 nM.
On to `COc1ccc2c(c1)c(C(N)=O)nn2-c1cccc(-c2cc([C@]3(O)CCN(C)C3=O)on2)c1` [Example 103, (R)-1-(3-(5-(3-Hydroxy-1-methyl-2-oxopyrrolidin-3-yl)isoxazol-3-yl)phenyl)-5-methoxy-1H-indazole-3-carboxamide], for which the IC50 in experiment [1] and in experiment [2] was less than 100 nM throughout.
